Results published in BigSolDB 2.1.

O=C1C2C3C=CC(C3)C2C(=O)N1O (stereo not drawn)
solubility (mole fraction)
Conditions | 278.15 K | 283.15 K | 288.15 K | 293.15 K | 298.15 K | 303.15 K | 308.15 K | 313.15 K | 318.15 K | 323.15 K
in 1,4-dioxane | – | – | 0.0796 | 0.0879 | 0.0963 | 0.107 | 0.115 | 0.128 | 0.138 | 0.153
in 2-butoxyethanol | 0.035 | 0.0408 | 0.0458 | 0.0536 | 0.0601 | 0.068 | 0.077 | 0.087 | 0.0989 | 0.11
in 2-ethoxyethanol | 0.0699 | 0.0774 | 0.0856 | 0.093 | 0.101 | 0.112 | 0.121 | 0.132 | 0.144 | 0.158
in 2-methoxyethanol | 0.106 | 0.115 | 0.122 | 0.131 | 0.141 | 0.154 | 0.164 | 0.179 | 0.188 | 0.205
in 2-propoxyethanol | 0.0446 | 0.0502 | 0.0566 | 0.0645 | 0.0718 | 0.0804 | 0.0896 | 0.0998 | 0.112 | 0.123
in acetone | 0.0266 | 0.0317 | 0.0374 | 0.0447 | 0.052 | 0.0606 | 0.0706 | 0.0817 | 0.0938 | 0.108
in acetonitrile | 0.0165 | 0.0201 | 0.0223 | 0.0258 | 0.0298 | 0.034 | 0.0387 | 0.0443 | 0.0505 | 0.0587
in ethanol | 0.0303 | 0.0352 | 0.042 | 0.051 | 0.0592 | 0.0703 | 0.082 | 0.0969 | 0.112 | 0.131
in ethyl acetate | 0.00721 | 0.00912 | 0.0112 | 0.0134 | 0.0156 | 0.0192 | 0.0229 | 0.0271 | 0.0323 | 0.0373
in isopropanol | 0.0197 | 0.0238 | 0.0287 | 0.0338 | 0.0403 | 0.0495 | 0.0577 | 0.0672 | 0.0774 | 0.089
in methanol | 0.0706 | 0.0796 | 0.0896 | 0.102 | 0.111 | 0.128 | 0.138 | 0.151 | 0.167 | 0.181
in n-propanol | 0.0192 | 0.0231 | 0.0274 | 0.034 | 0.0401 | 0.0488 | 0.0572 | 0.0651 | 0.0744 | 0.0885
